These results are taken from patent publication US20240034744A1, “COMPLEX COMPOUND OF COMPRISING THE CITRATE AND IRON ION AND THE FOOD COMPOSITION COMPRISING THE SAME” (priority 2022, published 2024).

Some results are limits rather than exact numbers.

The data set can be described thus: Measurement of solubility in water. The format is physicochemical. Conditions: 200 g/L in 15° C. water.

In the case of “iron-citrate complex compound [Comparative Example 1]”, the “proportion of the complex compound dissolved” value stood at 10% and the “proportion of the complex compound precipitated” value is recorded as 90%.

“iron-citrate complex compound [Example 1]”: the “proportion of the complex compound dissolved” value stood at 100%. For the same substance, for the setting “100% dissolved”, the time for dissolution was not above 5 min.
